Assays:
[1] = Echocardiography after transverse aortic banding (TAB) or sham surgery; assay type: in vivo, mice; conditions: for EF / FS / IVSd / IVSs / LVIDd / LVIDs / LVPWd / LVPWs / Heart Rate: i.p. treatment twice a week, echocardiography, mean; for Heart Rate: in bpm (unit assumed)
Experimental: For echocardiography, mice were anesthetized with pentobarbital (40 mg/kg body weight, i.p.) and then measurements were taken with ultrasound equipment (ATL Philips IE33, Ultrasound Machine System, CA, U.S.A.) using a 15-MHz probe. The left ventricular posterior wall thickness (LVPW), inter-ventricular septum thickness (IVS), and left ventricular lumen diameter at both end-systolic and end-diastolic phases were measured digitally on the M-mode tracings and averaged for three cardiac cycles. Fractional shortening (FS) and ejection faction (EF) were then calculated.
Male mice (weighing 25-30 g) were anesthetized by intraperitoneal injection of chloral hydrate (125 mg/kg). The TAB procedure was performed according to the description by Hu et al. (Hu P, Zhang D, Swenson L, Chakrabarti G, Abel E D, and Litwin S E (2003) Minimally invasive aortic banding in mice: effects of altered cardiomyocyte insulin signaling during pressure overload. Am J Physiol Heart Circ Physiol 285:H1261-H1269). Echocardiography was performed at week 10 after TAB or sham surgery.
The experimental timeline for TAB and ST32da therapy was as follows. Mice were pre or post treated with intraperitoneal ST32da (0.2 mg/kg) twice a week from 4th to 10th week after TAB procedure. Echocardiographic measurements were performed on mice before (week 4) and after (week 10) ST32da, ST32db, ST32c therapy in both the procedure group and the nonprocedure group. Parameters, including interventricular septum thickness at diastole (IVSd) and systole (IVSs), left ventricular internal diameter at diastole (LVIDd) and systole (LVIDs), left ventricular posterior wall thickness at diastole (LVPWd) and systole (LVPWs), fractional shortening of left ventricle, ejection fraction of left ventricle (EF), and heart rate (HR) are shown.

[2] = Animal model for obesity (45% high fat diet); assay type: in vivo; conditions: HFD-fed WT mice
[3] = system: ATF3; assay: ATF3 promoter luciferase platform (pGL4-ATF3 stable clones) for screening ATF3 inducers; assay type: cell-based; conditions: pGL4-ATF3 transfected 3T3-L1 preadipocytes and H9C2 cardiomyocytes
Source text: The disclosure is directed to chromenone derivatives used as an ATF3 inducer compound and for treating and/or preventing obesity and obesity-related disorders. The compounds of this disclosure are obtained by: (1) transfecting a special DNA sequence of ATF3 (pGL4-ATF3) into 3T3-L1 preadipocytes and H9C2 cardiomyocytes; (2) using the stable clone as a platform for screening of drug for anti-obesity, anti-atherosclerosis, anti-cardiovascular disease and promotion of white-to-brown adipocyte transdifferentiation; and (3) using the platform for special drug screening. […] The invention further finds that these compounds have an inhibitory effect on obesity and obesity-induced diabetes and a facilitatory effect on white-to-brown adipocyte transdifferentiation, thereby increasing the body energy expenditure and suppressing diabetes. In addition, these compounds also can inhibit high blood pressure or hypoxia induced cardiomyopathy to increase heart function.
The invention uses a platform of ATF3 promoter luciferase to select AT3 inducer and confirms that these selected compounds can be used as anti-obesity, anti-diabetes and anti-heart disease drugs in view of the fact that these compounds have an inhibitory effect on obesity and obesity-induced diabetes and inhibition of high blood pressure or hypoxia induced cardiomyopathy, thereby increasing heart function. The platform of ATF3 promoter luciferase is created by transfecting a DNA sequence of ATF3 (pGL4-ATF3) into 3T3-L1 preadipocytes and H9C2 cardiomyocytes and using the stable clones as a platform for screening of drugs for anti-obesity, anti-atherosclerosis, anti-cardiovascular disease and promotion of white-to-brown adipocyte transdifferentiation. […]

[4] = GTT and ITT assays in HFD-fed mice; assay type: in vivo; conditions: HFD-fed WT mice, 0.5 mg/kg/day or 1 mg/kg/day
Experimental: Mice were fasted overnight for 16 h before receiving an intraperitoneal administration of 1.5 g glucose/kg body weight in saline. Blood samples were collected from the tail vein by tail snipping at 0, 15, 30, 45, 60, and 120 min, and plasma glucose and insulin levels were determined from those samples. An ITT was performed on mice after 1 h of fasting. Animals were intraperitoneally injected with 1.0 U insulin/kg body weight in saline. Blood samples were drawn from the tail vein at 0, 15, 30, 45 and 60 min for the measurement of plasma glucose levels. Plasma glucose levels in blood samples collected from tail veins were determined using a commercially available glucose meter (OneTouch Ultra blood glucose meter, LifeScan, Milpitas, Calif.). After the isolation of plasma from blood samples, insulin levels were determined by ELISA (Mercodia, Winston Salem, N.C.). To evaluate the degree of insulin resistance, values were calculated using the following homeostatic model of assessment of insulin resistance (HOMA-IR) formula: fasting glucose (in mg/dl)×fasting insulin (in mU/ml)/405.)

[5] = TAB mice, week 4 to 10 after TAB

CC1Cc2c(c3ccc4ccccc4c3oc2=O)O1 (stereo not shown) [ST32c, 2-methyl-1H-benzo[h]furo[3,2-c]chromen-11(2H)-one]
TAB-induced LV dilatation ([1]; TAB mice): attenuated TAB-induced LV dilatation
contractility ([1]; TAB mice): increased contractility
EF [1, 5]: 86.500%
FS [1, 5]: 54.500%
IVSd [1, 5]: 1.350 mm
IVSs [1, 5]: 1.950 mm
LVIDd [1, 5]: 3.350 mm
LVIDs [1, 5]: 1.700 mm
LVPWd [1, 5]: 1.350 mm
LVPWs [1, 5]: 2.000 mm
Heart Rate [1, 5]: 340.000
EF ([1]; sham mice, week 4 to 10): 79.000%
FS ([1]; sham mice, week 4 to 10): 41.333%
IVSd ([1]; sham mice, week 4 to 10): 0.800 mm
IVSs ([1]; sham mice, week 4 to 10): 1.367 mm
LVIDd ([1]; sham mice, week 4 to 10): 3.733 mm
LVIDs ([1]; sham mice, week 4 to 10): 2.200 mm
LVPWd ([1]; sham mice, week 4 to 10): 0.800 mm
LVPWs ([1]; sham mice, week 4 to 10): 1.333 mm
Heart Rate ([1]; sham mice, week 4 to 10): 318.667
HFD-induced obesity (body weight) ([2]; 0.5 mg/kg/day, FIG. 7): could prevent HFD-induced obesity
ATF3 expression (screening for ATF3 inducers) [3]: induction of the above-mentioned ATF3 expression

C[C@@H]1Oc2c(c(=O)oc3c2ccc2ccccc23)[C@H]1C [ST32da, (1R,2S)-1,2-dimethyl-1H-benzo[h]furo[3,2-c]chromen-11(2H)-one]
TAB-induced LV dilatation ([1]; TAB mice): attenuated TAB-induced LV dilatation
contractility ([1]; TAB mice): increased contractility
EF [1, 5]: 75.000%
FS [1, 5]: 41.000%
IVSd [1, 5]: 1.200 mm
IVSs [1, 5]: 1.600 mm
LVIDd [1, 5]: 3.600 mm
LVIDs [1, 5]: 2.500 mm
LVPWd [1, 5]: 1.000 mm
LVPWs [1, 5]: 1.600 mm
Heart Rate [1, 5]: 294.000
EF ([1]; sham mice, week 4 to 10): 81.000%
FS ([1]; sham mice, week 4 to 10): 44.000%
IVSd ([1]; sham mice, week 4 to 10): 0.767 mm
IVSs ([1]; sham mice, week 4 to 10): 1.400 mm
LVIDd ([1]; sham mice, week 4 to 10): 3.833 mm
LVIDs ([1]; sham mice, week 4 to 10): 2.133 mm
LVPWd ([1]; sham mice, week 4 to 10): 0.800 mm
LVPWs ([1]; sham mice, week 4 to 10): 1.400 mm
Heart Rate ([1]; sham mice, week 4 to 10): 303.667
glucose tolerance (glucose tolerance test) ([4]; FIG. 5D): enhanced glucose tolerance
insulin sensitivity (insulin tolerance test) ([4]; FIG. 5E): improved inulin sensitivity
HFD-induced obesity (percent of initial body weight) ([2]; 0.5 mg/kg/day or 1 mg/kg/day i.p., FIG. 5A left): could prevent HFD-induced obesity
adipose depot mass including iWAT, eWAT, mWAT, rWAT and BAT ([2]; 0.5 mg/kg/day or 1 mg/kg/day i.p., FIG. 5B): decreased adipose depot mass
liver weights ([2]; 0.5 mg/kg/day or 1 mg/kg/day i.p., FIG. 5C): did not affect liver weights
ATF3 expression (screening for ATF3 inducers) [3]: induction of the above-mentioned ATF3 expression

C[C@@H]1c2c(c3ccc4ccccc4c3oc2=O)O[C@@H]1C [ST32db, (1R,2R)-1,2-dimethyl-1H-benzo[h]furo[3,2-c]chromen-11(2H)-one]
TAB-induced LV dilatation ([1]; TAB mice): attenuated TAB-induced LV dilatation
contractility ([1]; TAB mice): increased contractility
EF [1, 5]: 84.750%
FS [1, 5]: 48.250%
IVSd [1, 5]: 1.050 mm
IVSs [1, 5]: 1.750 mm
LVIDd [1, 5]: 3.600 mm
LVIDs [1, 5]: 1.850 mm
LVPWd [1, 5]: 1.050 mm
LVPWs [1, 5]: 1.700 mm
Heart Rate [1, 5]: 301.000
EF ([1]; sham mice, week 4 to 10): 81.667%
FS ([1]; sham mice, week 4 to 10): 44.667%
IVSd ([1]; sham mice, week 4 to 10): 0.800 mm
IVSs ([1]; sham mice, week 4 to 10): 1.533 mm
LVIDd ([1]; sham mice, week 4 to 10): 4.067 mm
LVIDs ([1]; sham mice, week 4 to 10): 2.233 mm
LVPWd ([1]; sham mice, week 4 to 10): 0.800 mm
LVPWs ([1]; sham mice, week 4 to 10): 1.433 mm
Heart Rate ([1]; sham mice, week 4 to 10): 318.500
HFD-induced obesity (body weight) ([2]; 1 or 10 mg/kg/day, FIG. 6A): could prevent HFD-induced obesity
ATF3 expression (screening for ATF3 inducers) [3]: induction of the above-mentioned ATF3 expression
